Assay results: patent publication US20100298758A1, “METHOD FOR NON-THERAPEUTIC OR THERAPEUTIC PHOTODYNAMIC SKIN TREATMENT” (priority 2007, published 2010)

System: cancer cells with high metabolism
Assay: Fluorescence after administration of 5-ALA in actinic keratosis (FIG. 5)
Assay type: in vivo
Settings: other investigations

NCC(=O)CCC(=O)O [5-ALA, 5-aminolevulinic acid]
fluorescence in cancer cells compared to normal cells: high selective fluorescence in cancer cells
